Experimental data from patent EP1431280A1, “ARYL SULFAMATE DERIVATIVES” (Kyowa Hakko Kogyo Co., Ltd, priority 2001, dated 2003).

molecular target: T1, recombinant human estrone sulfatase (Homo sapiens, UniProt P08842); assay: Test for inhibition of estrone sulfatase (steroid sulfatase); format: biochemical; conditions: 4-methylumbelliferyl sulfate 0.3 mmol/L, phosphate buffer pH 7.5, 37 °C, 1 hour, fluorescence of 4-methylumbelliferone; read-out: IC50, inhibitory activity against steroid sulfatase
T1 construct: made in house; host or cells: Chinese Hamster Ovary (CHO) cells
T1 sequence (P08842 22-583): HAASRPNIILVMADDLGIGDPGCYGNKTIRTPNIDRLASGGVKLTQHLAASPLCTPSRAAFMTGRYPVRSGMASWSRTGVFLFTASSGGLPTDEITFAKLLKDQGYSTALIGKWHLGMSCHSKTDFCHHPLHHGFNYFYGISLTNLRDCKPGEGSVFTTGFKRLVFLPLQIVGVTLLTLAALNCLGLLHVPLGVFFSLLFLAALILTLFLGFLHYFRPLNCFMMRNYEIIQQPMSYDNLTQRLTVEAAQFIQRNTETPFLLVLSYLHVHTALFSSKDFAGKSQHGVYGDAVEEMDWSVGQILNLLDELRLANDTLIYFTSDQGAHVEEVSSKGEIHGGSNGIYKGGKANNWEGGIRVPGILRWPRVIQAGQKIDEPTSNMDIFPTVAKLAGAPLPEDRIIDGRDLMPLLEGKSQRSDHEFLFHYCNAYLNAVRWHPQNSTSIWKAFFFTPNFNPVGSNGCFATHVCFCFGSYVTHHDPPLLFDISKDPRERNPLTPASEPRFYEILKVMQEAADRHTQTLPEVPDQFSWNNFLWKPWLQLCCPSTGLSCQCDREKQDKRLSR
Experimental: 4-Methylumbelliferyl sulfate (final concentration 0.3 mmol/L), recombinant human estrone sulfatase (7.8 ng/well), and each solution of the test compound having each test concentrations (test compound was dissolved in 0.001 mL of DMSO) were added to a phosphate buffer (pH 7.5) (final volume 0.1 mL) containing 0.28 mol/L sucrose and 0.04 mol/L nicotinamide. An enzyme reaction was conducted at 37 °C for 1 hour. The human estrone sulfatase gene was introduced into Chinese Hamster Ovary (CHO) cells, and the recombinant human estrone sulfatase was expressed, then it was used after partial purification. After completing the enzyme reaction, 2 mol/L glycine-sodium hydroxide solution (pH 10.3) (0.13 mL) was added and stirred. Using a fluorescent plate reader (Cyto Fluor II), the fluorescent strength of the generated 4-methylumbelliferone was measured. The measurements were conducted in duplicate at the same time. The fluctuations within the assay were within 10%. An enzyme reaction without the presence of a test compound was conducted at the same time. The inhibitory activity against estrone sulfatase for each concentration of the test compounds was calculated using the following equation. • A: Amount of 4-methylumbelliferone when test compound is present • B: Amount of 4-methylumbelliferone when test compound is not present [formula]
The inhibitory activity against estrone sulfatase of the aryl sulfamate derivative can be expressed as the concentration (IC50) of aryl sulfamate derivative at which the estrone sulfatase activity in the presence of the aryl sulfamate derivative is half of that when no test compound is added.

IC50 [nM]	Structure (SMILES)
14	CCCCCCCCCNC(=O)C(C#N)=Cc1ccc(OS(N)(=O)=O)cc1 [Compound 5]
12	CCCCCCCNC(=O)C(C#N)=Cc1ccc(OS(N)(=O)=O)cc1 [Compound 6]
< 12	CCCCCCCNC(=O)C(C#N)=C(C)c1ccc(OS(N)(=O)=O)cc1 [Compound 16]
35	CCCCCCCCCNC(=O)C(C#N)=C(CF)c1ccc(OS(N)(=O)=O)cc1 [Compound 19]
< 12	CCCCCCCCCNC(=O)C(C#N)=C(O)c1ccc(OS(N)(=O)=O)cc1 [Compound 22]
44	CCCCCCCCCNC(=O)C=C(C#N)c1ccc(OS(N)(=O)=O)cc1 [Compound 47]
99	CCCCCCCCCNC(=O)C#Cc1ccc(OS(N)(=O)=O)cc1 [Compound 57]
31	CCCCCCCCCNC(=O)CC(=O)c1ccc(OS(N)(=O)=O)cc1 [Compound 58]

Structure (SMILES)	IC50 [nM]
CCCCCCCCNC(=O)/C(C#N)=C(\C)c1ccc(OS(N)(=O)=O)cc1 [Compound 15]	< 12
CCCCCCCCCNC(=O)C(C#N)=C(CC)c1ccc(OS(N)(=O)=O)cc1 [Compound 17]	17
